pEC50: −log10 of the molar value.
Key:
[1] = molecular target: T1, FXR ligand binding domain (Homo sapiens, UniProt Q96RI1); experiment: Mammalian One Hybrid (M1H) assay, Gal4 promoter driven transactivation in HEK293 cells; assay type: cell-based; details: Gal4-FXR-LBD luciferase reporter, 16 h
T1 construct: expressed in transfected cells; host or cells: HEK293 cells, transiently transfected with pCMV-BD-FXR-LBD, pFR-Luc and pRL-CMV
T1 sequence (Q96RI1 187-472 isoform Q96RI1-2): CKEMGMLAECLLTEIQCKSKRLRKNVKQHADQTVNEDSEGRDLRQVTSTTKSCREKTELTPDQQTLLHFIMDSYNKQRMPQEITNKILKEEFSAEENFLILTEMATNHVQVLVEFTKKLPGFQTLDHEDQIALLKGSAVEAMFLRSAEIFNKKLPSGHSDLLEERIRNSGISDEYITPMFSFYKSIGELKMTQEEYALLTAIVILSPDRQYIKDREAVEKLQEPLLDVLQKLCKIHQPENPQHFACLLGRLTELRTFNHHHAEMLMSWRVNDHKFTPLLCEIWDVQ
Description: Mammalian One Hybrid (M1H) Assay
Determination of a ligand mediated Gal4 promoter driven transactivation to quantify ligand binding mediated activation of FXR was performed as follows: The cDNA part encoding the FXR ligand binding domain was cloned into vector pCMV-BD (Stratagene) as a fusion to the yeast GAL4 DNA binding domain under the control of the CMV promoter. The amino acid boundaries of the ligand binding domain were amino acids 187-472 of Database entry NM_005123 (RefSeq). The plasmid pFR-Luc (Stratagene) was used as the reporter plasmid, containing a synthetic promoter with five tandem repeats of the yeast GAL4 binding sites, driving the expression of the Photinus pyralis (American firefly) luciferase gene as the reporter gene. In order to improve experimental accuracy the plasmid pRL-CMV (Promega) was cotransfected. pRL-CMV contains the constitutive CMV promoter, controlling the expression of the Renilla reniformis luciferase. All Gal4 reporter gene assays were done in HEK293 cells (obtained from DSMZ, Braunschweig, Germany) grown in MEM with L-Glutamine and Earle's BSS supplemented with 10% fetal bovine serum, 0.1 mM nonessential amino acids, 1 mM sodium pyruvate, and 100 units Penicilin/[…] per mL at 37° C. in 5% CO2. Medium and supplements were obtained from Invitrogen. For the assay, […] cells were plated per well in 96 well plates in 100 μL per well MEM without Phenol Red and L-Glutamine and with Earle's BSS supplemented with 10% charcoal/dextran treated FBS (HyClone, South Logan, Utah), 0.1 mM nonessential amino acids, 2 mM glutamine, 1 mM sodium pyruvate, and 100 units Penicilin/[…] per mL, incubated at 37° C. in 5% CO2. The following day the cells were >90% confluence. Medium was removed and cells were transiently transfected using 20 μL per well of a OptiMEM—polyethylene-imine-based transfection-reagent (OptiMEM, Invitrogen; Polyethyleneimine, Aldrich Cat No. 40,827-7) including the three plasmids described above. MEM with the same composition as used for plating cells was added 2-4 h after addition of transfection mixture. Then compound stocks, prediluted in MEM were added (final vehicle concentration not exceeding 0.1%). Cells were incubated for additional 16 h before firefly and renilla luciferase activities were measured sequentially in the same cell extract using a Dual-Light-Luciferase-Assay system (Dyer et al., Anal. Biochem. 2000, 282, 158-161). All experiments were done in triplicates.

[2] = molecular target: T2, human FXR alpha ligand binding domain (Homo sapiens, UniProt Q96RI1); experiment: FRET activity assay (ligand mediated cofactor peptide interaction, LANCE); assay type: biochemical; details: GST-FXR-LBD / biotinylated SRC-1 peptide (676-700), read-out: F EC50
T2 construct: made in house; host or cells: E. coli BL21(DE3), vector pDEST15
T2 sequence (Q96RI1 187-472 isoform Q96RI1-2): T1 sequence (Q96RI1 187-472 isoform Q96RI1-2)
Description: Determination of a ligand mediated cofactor peptide interaction to quantify ligand binding to the nuclear receptor FXR was performed as follows: Preparation of human FXR alpha ligand binding domain: The human FXRalpha LBD was expressed in E. coli strain BL21(DE3) as an N-terminally GST tagged fusion protein. The DNA encoding the FXR ligand binding domain was cloned into vector pDEST15 (Invitrogen). Expression was under control of an IPTG inducible T7 promoter. The amino acid boundaries of the ligand binding domain were amino acids 187-472 of Database entry NM_005123 (RefSeq). Expression and purification of the FXR-LBD: An overnight preculture of a transformed E. coli strain was diluted 1:20 in LB-Ampicillin medium and grown at 30° C. to an optical density of OD600=0.4-0.6. Gene expression was then induced by addition of 0.5 mM IPTG. Cells were incubated an additional 6 h at 30° C., 180 rpm. Cells were collected by centrifugation (7000×g, 7 min, rt). Per liter of original cell culture, cells were resuspended in 10 mL lysis buffer (50 mM Glucose, 50 mM Tris pH 7.9, 1 mM EDTA and 4 mg/mL lysozyme) and left on ice for 30 min. Cells were then subjected to sonication and cell debris removed via centrifugation (22000×g, 30 min, 4° C.). Per 10 mL of supernatant 0.5 mL prewashed Glutathione 4B sepharose slurry (Qiagen) was added and the suspension kept slowly rotating for 1 h at 4° C. Glutathione 4B sepharose beads were pelleted by centrifugation (2000×g, 15 sec, 4° C.) and washed twice in wash buffer (25 mM Tris, 50 mM KCl, 4 mM MgCl2 and 1M NaCl). The pellet was resuspended in 3 mL elution buffer per liter of original culture (elution buffer: 20 mM Tris, 60 mM KCl, 5 mM MgCl2 and 80 mM glutathione added immediately prior to use as powder). The suspension was left rotating for 15 min at 4° C., the beads pelleted and eluted again with half the volume of elution buffer than the first time. The eluates were pooled and dialysed overnight in 20 mM Hepes buffer (pH 7.5) containing 60 mM KCl, 5 mM MgCl2 as well as 1 mM dithiothreitol and 10% (v/v) glycerol. The protein was analysed by SDS-Page.
The method measures the ability of putative ligands to modulate the interaction between the purified bacterial expressed FXR ligand binding domain (LBD) and a synthetic biotinylated peptide based on residues 676-700 of SRC-1 (LCD2, 676-700). The sequence of the peptide used was B—[…]—COOH where the N-terminus was biotinylated (B). The ligand binding domain (LBD) of FXR was expressed as fusion protein with GST in BL-21 cells using the vector pDEST15. Cells were lysed by sonication, and the fusion proteins purified over glutathione sepharose (Pharmacia) according to the manufacturers instructions. For screening of compounds for their influence on the FXR-peptide interaction, the Perkin Elmer LANCE technology was applied. This method relies on the binding dependent energy transfer from a donor to an acceptor fluorophor attached to the binding partner of interest. For ease of handling and reduction of background from compound fluorescence LANCE technology makes use of generic fluorophore labels and time resolved detection Assays were done in a final volume of 25 μL in a 384 well plate, in a Tris-based buffer (20 mM Tris-HCl pH 7.5; 60 mM KCl, 5 mM MgCl2; 35 ng/μL BSA), containing 20-60 ng/well recombinantly expressed FXR-LBD fused to GST, 200-600 nM N-terminally biotinylated peptide, representing SRC1 aminoacids 676-700, 200 ng/well Streptavidin-xIAPC conjugate (Prozyme) and 6-10 ng/well Eu W1024-antiGST (Perkin Elmer). DMSO content of the samples was kept at 1%. After generation of the assay mix and diluting the potentially FXR modulating ligands, the assay was equilibrated for 1 h in the dark at rt in FIA-plates black 384 well (Greiner). The LANCE signal was detected by a Perkin Elmer VICTOR2VTM Multilabel Counter. The results were visualized by plotting the ratio between the emitted light at 665 and 615 nm. […]

Row | SMILES | pEC50 [1] | pEC50 [2]
1 | Cc1cccc(C)c1OCc1noc(C2CC2)c1CO[C@@H]1C[C@H]2CC[C@@H](C1)[C@]2(O)c1nc2c(F)cc(C(=O)O)cc2s1 [Example 11-50, 2-((1R,3s,5S,8r)-3-((5-Cyclopropyl-3-((2,6-dimethylphenoxy)methyl)isoxazol-4-yl)methoxy)-8-hydroxybicyclo[3.2.1]octan-8-yl)-4-fluorobenzo[d]thiazole-6-carboxylic acid] | 8.19 | 7.09
2 | OCc1ccc([C@]2(O)CC[C@@H](OCc3c(-c4c(Cl)cccc4Cl)noc3C3CC3)CC2)c(F)c1 [Example 9-6, (1s,4s)-4-((5-Cyclopropyl-3-(2,6-dichlorophenyl)isoxazol-4-yl)methoxy)-1-(2-fluoro-4-(hydroxymethyl)phenyl)cyclohexanol] | 6.49 | 6.66
3 | O=C(O)c1ccc2sc([C@]3(O)CC[C@@H](OCc4c(-c5c(Cl)cccc5Cl)noc4C4CC4)CC3)nc2c1 [Example 4, 2-((1s,4s)-4-((5-Cyclopropyl-3-(2,6-dichlorophenyl)isoxazol-4-yl)methoxy)-1-hydroxycyclohexyl)benzo[d]thiazole-5-carboxylic acid] | 7.00 | 7.68
4 | O=C(O)c1cccc2nc([C@]3(O)CC[C@@H](OCc4c(-c5c(Cl)cccc5Cl)noc4C4CC4)CC3)sc12 [Example 26, 2-((1s,4s)-4-((5-Cyclopropyl-3-(2,6-dichlorophenyl)isoxazol-4-yl)methoxy)-1-hydroxycyclohexyl)benzo[d]thiazole-7-carboxylic acid] | 6.68 | 7.77
5 | Cn1cc(C(=O)O)c2ccc([C@]3(O)CC[C@@H](OCc4c(-c5c(Cl)cccc5Cl)noc4C4CC4)CC3)cc21 [Example 11-42, 6-((1s,4s)-4-((5-Cyclopropyl-3-(2,6-dichlorophenyl)isoxazol-4-yl)methoxy)-1-hydroxycyclohexyl)-1-methyl-1H-indole-3-carboxylic acid] | 7.44 | 7.70
6 | O=C(O)c1ccc2nc([C@]3(O)CC[C@@H](OCc4c(C5CCC6(CC5)CC6)noc4C4CC4)CC3)sc2c1 [Example 11-3, 2-((1s,4s)-4-((5-Cyclopropyl-3-(spiro[2.5]octan-6-yl)isoxazol-4-yl)methoxy)-1-hydroxycyclohexyl)benzo[d]thiazole-6-carboxylic acid] | 5.68 | 5.89
7 | O[C@@]1(c2cnc3nn[nH]c3c2)[C@@H]2CC[C@H]1C[C@H](OCc1c(-c3c(Cl)cccc3Cl)noc1C1CC1)C2 [Example 34, (1R,3s,5S,8r)-8-(1H-[1,2,3]Triazolo[4,5-b]pyridin-6-yl)-3-((5-cyclopropyl-3-(2,6-dichlorophenyl)isoxazol-4-yl)methoxy)bicyclo[3.2.1]octan-8-ol] | 8.28 | 8.39
8 | O=C(O)c1ccnc2ccc([C@]3(O)CC[C@H](OCc4c(-c5c(Cl)cccc5Cl)noc4C4CC4)CC3)cc12 [Example 31, 6-((1r,4r)-4-((5-cyclopropyl-3-(2,6-dichlorophenyl)isoxazol-4-yl)methoxy)-1-hydroxycyclohexyl)quinoline-4-carboxylic acid] | < 5.52 | 5.31
9 | O=C(O)c1ccc2nc([C@]3(O)[C@@H]4CC5C[C@H]3C[C@](OCc3c(-c6c(Cl)cccc6Cl)noc3C3CC3)(C5)C4)sc2c1 [Example 11-36, 2-((1R,2s,3S,5s,7s)-5-((5-Cyclopropyl-3-(2,6-dichlorophenyl)isoxazol-4-yl)methoxy)-2-hydroxyadamantan-2-yl)benzo[d]thiazole-6-carboxylic acid] | 6.03 | 5.96
10 | O=C(O)C1(Oc2cc(F)cc([C@]3(O)[C@@H]4CC[C@H]3C[C@H](OCc3c(-c5c(Cl)cccc5Cl)noc3C3CC3)C4)c2)CC1 [Example 14-3, 1-(3-((1R,3s,5S,8r)-3-((5-Cyclopropyl-3-(2,6-dichlorophenyl)isoxazol-4-yl)methoxy)-8-hydroxybicyclo[3.2.1]octan-8-yl)-5-fluorophenoxy)cyclopropanecarboxylic acid] | 6.28 | 7.39
11 | O=C(O)c1cc(F)c2nc([C@]3(O)[C@@H]4CC[C@H]3C[C@H](OCc3c(-c5c(Cl)cncc5Cl)noc3C3CC3)C4)sc2c1 [Example 11-29, 2-((1R,3s,5S,8r)-3-((5-cyclopropyl-3-(3,5-dichloropyridin-4-yl)isoxazol-4-yl)methoxy)-8-hydroxybicyclo[3.2.1]octan-8-yl)-4-fluorobenzo[d]thiazole-6-carboxylic acid] | 8.24 | 8.37
12 | O=C(O)c1cc(F)c2nc(C3(O)C[C@H]4CC[C@@H](C3)C4OCc3c(-c4c(Cl)cccc4Cl)noc3C3CC3)sc2c1 (single isomer, unassigned) [Example 11-54] | 6.41 | 6.09
13 | CC1(OCc2c(-c3c(Cl)cccc3Cl)noc2C2CC2)C[C@H]2CC[C@@H](C1)[C@]2(O)c1nc2c(F)cc(C(=O)O)cc2s1 (single isomer, unassigned) [Example 11-39] | 6.60 | 6.41
